Assay results from patent publication EP0178388A1, “Quinolinecarboxylic acid derivatives” (KYORIN PHARMACEUTICAL CO., LTD., priority 1984, dated 1986).
Values after ≈ are worked out from the molar mass of the structure shown. Structures can show the parent of a compound that is named as a salt. Where two headings read alike, the source gives them in different places.

What was measured:
[1] = tested on: Bacillus subtilis PCI 219; assay: In vitro antibacterial activity, MIC (standard strain); assay type: cell-based; conditions: PCI219; Bacillus subtilis PCI 219, 10^6 cells/ml, standard strain; read-out: MIC
[2] = tested on: Staphylococcus aureus 209 P; assay: as above; assay type: cell-based; conditions: 10^6 cells/ml, read-out: MIC
S. epidermidis IID 866 = assay: as above; assay type: cell-based; conditions: Staphylococcus epidermidis, IID866, S. epidermidis IID 866, 10^6 cells/ml
[3] = tested on: Streptococcus pyogenes S-8; assay: as above; assay type: cell-based; conditions: S8, Streptococcus pyogenes S-8, 10^6 cells/ml
S. pyogenes IID 692 = assay: as above; assay type: cell-based; conditions: Streptococcus pyogenes, IID692, S. pyogenes IID 692, 10^6 cells/ml
S. pneumoniae IID 552 = assay: as above; assay type: cell-based; conditions: Streptococcus pneumoniae, IID552, S. pneumoniae IID 552, 10^6 cells/ml
[4] = tested on: Escherichia coli NIHJ JC-2; assay: as above; assay type: cell-based; conditions: NIHJJC2, Escherichia coli NIHJ JC-2, 10^6 cells/ml
E. coli ATCC 10536 = assay: as above; assay type: cell-based; conditions: Escherichia coli, ATCC10536
[5] = tested on: Proteus vulgaris IFO 3167; assay: as above; assay type: cell-based; conditions: Proteus vulgaris, IFO3167
P. mirabilis IID 994 = assay: as above; assay type: cell-based; conditions: Proteus mirabilis, IID994, P. mirabilis IID 994, 10^6 cells/ml
P. morganii IID 602 = assay: as above; assay type: cell-based; conditions: Morganella morganii, IID602; P. morganii IID 602, 10^6 cells/ml, standard strain; read-out: MIC
[6] = tested on: Klebsiella pneumoniae I-220S; assay: as above; assay type: cell-based; conditions: I220S; Klebsiella pneumoniae I-220S, 10^6 cells/ml, standard strain; read-out: MIC
K. pneumoniae KY(GN)6445 = assay: as above; assay type: cell-based; conditions: Klebsiella pneumoniae
Shigella sonnei IID 969 = assay: as above; assay type: cell-based; conditions: IID969, Shigella sonnei IID 969, 10^6 cells/ml
Method: (§1) The in vitro antibacterial activity has been investigated, the minimun inhibitory concentration (MIC) was determined in accordance with the method recommended by Japan Society of Chemotherapy.

[7] = tested on: Salmonella enteritidis IID 604; assay: as above; assay type: cell-based; conditions: Salmonella enterica; Salmonella enteritidis IID 604, 10^6 cells/ml, standard strain; read-out: MIC
[8] = tested on: Yersinia enterocolitica IID 981; assay: as above; assay type: cell-based; conditions: IID981; Yersinia enterocolitica IID 981, 10^6 cells/ml, standard strain; read-out: MIC
[9] = tested on: Bacteroides fragilis GM 7000; assay: as above; assay type: cell-based; conditions: GM7000; Bacteroides fragilis GM 7000, 10^6 cells/ml, standard strain; read-out: MIC
B. fragilis 0558 = assay: as above; assay type: cell-based; conditions: Bacteroides fragilis; B. fragilis 0558, 10^6 cells/ml, standard strain; read-out: MIC
[10] = tested on: F. varium KYA (ATCC) 8501; assay: as above; assay type: cell-based; conditions: Fusobacterium varium, F. varium KYA (ATCC) 8501, 10^6 cells/ml
[11] = tested on: C. perfringens KYA (ATCC) 13123; assay: microbe, parasite or virus in culture; assay type: cell-based; conditions: Clostridium perfringens
S. pneumoniae 2950 = assay: In vitro antibacterial activity, MIC (clinical isolates); assay type: cell-based; conditions: Streptococcus pneumoniae; S. pneumoniae 2950, 10^6 cells/ml, clinical isolate
S. pyogenes 3130 = assay: as above; assay type: cell-based; conditions: Streptococcus pyogenes; S. pyogenes 3130, 10^6 cells/ml, clinical isolate
S. pyogenes 3102 = assay: as above; assay type: cell-based; conditions: Streptococcus pyogenes; S. pyogenes 3102, 10^6 cells/ml, clinical isolate
S. pyogenes 3107 = assay: as above; assay type: cell-based; conditions: Streptococcus pyogenes; S. pyogenes 3107, 10^6 cells/ml, clinical isolate
S. pyogenes 4372 = assay: as above; assay type: cell-based; conditions: Streptococcus pyogenes; S. pyogenes 4372, 10^6 cells/ml, clinical isolate
S. agalactiae 4394 = assay: as above; assay type: cell-based; conditions: Streptococcus agalactiae; S. agalactiae 4394, 10^6 cells/ml, clinical isolate
S. agalactiae 4049 = assay: as above; assay type: cell-based; conditions: Streptococcus agalactiae; S. agalactiae 4049, 10^6 cells/ml, clinical isolate
S. agalactiae 4342 = assay: as above; assay type: cell-based; conditions: Streptococcus agalactiae; S. agalactiae 4342, 10^6 cells/ml, clinical isolate
S. agalactiae 4470 = assay: as above; assay type: cell-based; conditions: Streptococcus agalactiae; S. agalactiae 4470, 10^6 cells/ml, clinical isolate
E. coli ML4707 [12] = assay: MIC against the infecting strain (Table 2); assay type: cell-based; conditions: Escherichia coli; E. coli ML4707 (Table 2, parts 1 and 2)
Method: as §1

E. coli ML4707 [13] = assay: In vivo antibacterial activity against systemic infection in mice;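 further: ED50 in mg/kg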; conditions: Escherichia coli, ML4707, po, 1 h, E. coli ML4707, mice (ICR-S), intraperitoneal infection, oral at 1 hour after infection, read-out: ED50
Method: Experiment 2 In vivo antibacterial activity against systemic infection in mice (ICR-S)
The infections were produced by intraperitoneal infection of a suspension of the bacterial culture corresponding to the germ studied. The product was administered orally at 1 hour after the infection. The 50% effective dose (ED50) which protects 50% of the animals from death caused by the infection was determined from the relation between dosage and survival rate.

[14] = challenge dose 8.3 x 10^6 cfu/mouse (part 2)

| Structure (SMILES) | MIC [1] | MIC [2] | MIC (S. epidermidis IID 866) | MIC [3] | MIC (S. pyogenes IID 692) | MIC (S. pneumoniae IID 552) | MIC [4] | MIC [5] | MIC (P. mirabilis IID 994) | MIC (P. morganii IID 602) | MIC [6] | MIC (Shigella sonnei IID 969) | MIC [7] | MIC [8] | MIC [9] | MIC (B. fragilis 0558) | MIC [10] | MIC [11] | MIC (S. pneumoniae 2950) | MIC (S. pyogenes 3130) | other results |
| --- | --- | --- | --- | --- | --- | --- | --- | --- | --- | --- | --- | --- | --- | --- | --- | --- | --- | --- | --- | --- | --- |
| CC1CN(c2c(F)cc3c(=O)c(C(=O)O)cn(C4CC4)c3c2Cl)CCN1 (stereo not drawn) [Example 5, 8-Chloro-l-cyclopropyl-6-fluoro-1,4-dihydro-7-(3-methyl-1-piperazinyl)-4-oxoquinoline-3-carboxylic acid hydrochloride] | 0.025 µg/mL | 0.1 µg/mL | 0.1 µg/mL | 0.39 µg/mL | 0.78 µg/mL | 0.78 µg/mL | ≤ 0.006 µg/mL | 0.0125 µg/mL | 0.025 µg/mL | 0.1 µg/mL | 0.05 µg/mL | 0.0125 µg/mL | 0.025 µg/mL | 0.05 µg/mL | 0.39 µg/mL | 0.2 µg/mL | 3.13 µg/mL | 0.78 µg/mL | 0.78 µg/mL | 0.39 µg/mL | MIC (E. coli ATCC 10536): 0.0125 µg/mL; MIC (K. pneumoniae KY(GN)6445; K. pneumoniae KY(GN)6445, 10^6 cells/ml, standard strain, read-out: MIC): 0.025 µg/mL; MIC (S. pyogenes 3102): 0.39 µg/mL; MIC (S. pyogenes 3107): 0.39 µg/mL; MIC (S. pyogenes 4372): 0.39 µg/mL; MIC (S. agalactiae 4394): 0.78 µg/mL; MIC (S. agalactiae 4049): 0.78 µg/mL; MIC (S. agalactiae 4342): 0.78 µg/mL; MIC (S. agalactiae 4470): 0.78 µg/mL; MIC (E. coli ML4707 [12]): 0.0125 µg/mL; ED50 (E. coli ML4707 [13]; [14]): 0.12 mg/kg |
| CC1CN(c2c(F)cc3c(=O)c(C(=O)O)cn(C4CC4)c3c2F)CCN1 (stereo not drawn) [Example 2, l-Cyclopropyl-6,8-difluoro-l,4-dihydro-7-(3-methyl-l-piperazinyl)-4-oxoquinoline-3-carboxylic acid] | 0.05 µg/mL (≈ 0.138 µM) | 0.2 µg/mL (≈ 0.55 µM) | 0.2 µg/mL (≈ 0.55 µM) | 0.78 µg/mL (≈ 2.15 µM) | 0.78 µg/mL (≈ 2.15 µM) | 0.78 µg/mL (≈ 2.15 µM) | ≤ 0.006 µg/mL | 0.0125 µg/mL (≈ 0.0344 µM) | 0.025 µg/mL (≈ 0.0688 µM) | 0.05 µg/mL (≈ 0.138 µM) | 0.05 µg/mL (≈ 0.138 µM) | 0.0125 µg/mL (≈ 0.0344 µM) | 0.025 µg/mL (≈ 0.0688 µM) | 0.05 µg/mL (≈ 0.138 µM) | 1.56 µg/mL (≈ 4.29 µM) | 0.78 µg/mL (≈ 2.15 µM) | 6.25 µg/mL (≈ 17.2 µM) | 0.78 µg/mL (≈ 2.15 µM) | 1.56 µg/mL (≈ 4.29 µM) | 0.78 µg/mL (≈ 2.15 µM) | MIC (E. coli ATCC 10536; E. coli ATCC 10536, 10^6 cells/ml, standard strain, read-out: MIC): ≤ 0.006 µg/mL; MIC (K. pneumoniae KY(GN)6445): 0.0125 µg/mL (≈ 0.0344 µM); MIC (S. pyogenes 3102): 0.78 µg/mL (≈ 2.15 µM); MIC (S. pyogenes 3107): 0.78 µg/mL (≈ 2.15 µM); MIC (S. pyogenes 4372): 0.78 µg/mL (≈ 2.15 µM); MIC (S. agalactiae 4394): 1.56 µg/mL (≈ 4.29 µM); MIC (S. agalactiae 4049): 1.56 µg/mL (≈ 4.29 µM); MIC (S. agalactiae 4342): 0.78 µg/mL (≈ 2.15 µM); MIC (S. agalactiae 4470): 0.78 µg/mL (≈ 2.15 µM); MIC (E. coli ML4707 [12]): 0.0125 µg/mL (≈ 0.0344 µM); ED50 (E. coli ML4707 [13]; challenge dose 6.0 x 10^6 cfu/mouse (part 1)): 0.09 mg/kg; ED50 (E. coli ML4707 [13]; [14]): 0.17 mg/kg |
